Source: ChEMBL document CHEMBL3046001, “4-Thiazolidinone and 1-thia-3,4,9-triaza fluorene conjugates: synthesis, characterization and antimicrobial screening” (2013)
In brackets after ≈: the same amount, converted by molar mass. Activity calls are given as the source filed them. No cut-off for these calls is given here.

Legend:
Staphylococcus aureus [1] = experiment: Antibacterial activity against Staphylococcus aureus MTCC 1430 assessed as growth inhibition at 250 ug/mL after 48 hr by agar diffusion method; type: functional
Micrococcus luteus [2] = experiment: Antibacterial activity against Micrococcus luteus MTCC 1538 assessed as growth inhibition at 750 ug/mL after 48 hr by agar diffusion method; type: functional; settings: MTCC 1538, 48 h, read-out: DIZ
Staphylococcus aureus [3] = experiment: Antibacterial activity against Staphylococcus aureus MTCC 1430 assessed as growth inhibition at 1250 ug/mL after 48 hr by agar diffusion method; type: functional; settings: MTCC 1430, 48 h, read-out: DIZ
Micrococcus luteus [4] = experiment: Antibacterial activity against Micrococcus luteus MTCC 1538 assessed as growth inhibition at 1000 ug/mL after 48 hr by agar diffusion method; type: functional; settings: MTCC 1538, 48 h, read-out: DIZ
Micrococcus luteus [5] = experiment: Antibacterial activity against Micrococcus luteus MTCC 1538 assessed as growth inhibition after 24 hr by tube dilution method; type: functional; settings: MTCC 1538, 24 h
Bacillus subtilis [6] = experiment: Antibacterial activity against Bacillus subtilis MTCC 441 assessed as growth inhibition at 500 ug/mL after 48 hr by agar diffusion method; type: functional; settings: MTCC 441, 48 h, read-out: DIZ
Bacillus subtilis [7] = experiment: Antibacterial activity against Bacillus subtilis MTCC 441 assessed as growth inhibition at 750 ug/mL after 48 hr by agar diffusion method; type: functional; settings: MTCC 441, 48 h, read-out: DIZ
Pseudomonas fluorescens [8] = experiment: Antibacterial activity against Pseudomonas fluorescens MTCC 2421 assessed as growth inhibition at 250 ug/mL after 48 hr by agar diffusion method; type: functional; settings: MTCC 2421, 48 h, read-out: DIZ
Bacillus subtilis [9] = experiment: Antibacterial activity against Bacillus subtilis MTCC 441 assessed as growth inhibition at 1000 ug/mL after 48 hr by agar diffusion method; type: functional; settings: MTCC 441, 48 h, read-out: DIZ
Penicillium chrysogenum [10] = experiment: Antifungal activity against Penicillium chrysogenum MTCC 161 assessed as growth inhibition at 250 ug/mL after 48 hr by agar diffusion method; type: functional; settings: MTCC 161, 48 h, read-out: DIZ
Aspergillus niger [11] = experiment: Antifungal activity against Aspergillus niger MTCC 2546 assessed as growth inhibition at 100 ug/mL after 48 hr by agar diffusion method; type: functional, organism-based
Bacillus pumilus [12] = experiment: Antibacterial activity against Bacillus pumilus MTCC 1456 assessed as growth inhibition at 100 ug/mL after 48 hr by agar diffusion method; type: functional; settings: MTCC 1456, 48 h, read-out: DIZ
Staphylococcus aureus [13] = experiment: Antibacterial activity against Staphylococcus aureus MTCC 1430 assessed as growth inhibition at 1000 ug/mL after 48 hr by agar diffusion method; type: functional; settings: MTCC 1430, 48 h, read-out: DIZ
Penicillium chrysogenum [14] = experiment: Antifungal activity against Penicillium chrysogenum MTCC 161 assessed as growth inhibition at 1000 ug/mL after 48 hr by agar diffusion method; type: functional; settings: MTCC 161, 48 h, read-out: DIZ
Pseudomonas aeruginosa [15] = experiment: Antibacterial activity against Pseudomonas aeruginosa MTCC 424 assessed as growth inhibition at 750 ug/mL after 48 hr by agar diffusion method; type: functional; settings: MTCC 424, 48 h, read-out: DIZ
Pseudomonas fluorescens [16] = experiment: Antibacterial activity against Pseudomonas fluorescens MTCC 2421 assessed as growth inhibition at 750 ug/mL after 48 hr by agar diffusion method; type: functional; settings: MTCC 2421, 48 h, read-out: DIZ
Aspergillus niger [17] = experiment: Antifungal activity against Aspergillus niger MTCC 2546 assessed as growth inhibition at 1250 ug/mL after 48 hr by agar diffusion method; type: functional; settings: MTCC 2546, 48 h, read-out: DIZ
Pseudomonas fluorescens [18] = experiment: Antibacterial activity against Pseudomonas fluorescens MTCC 2421 assessed as growth inhibition at 100 ug/mL after 48 hr by agar diffusion method; type: functional; settings: MTCC 2421, 48 h, read-out: DIZ
Aspergillus niger [19] = experiment: Antifungal activity against Aspergillus niger MTCC 2546 assessed as growth inhibition at 500 ug/mL after 48 hr by agar diffusion method; type: functional; settings: MTCC 2546, 48 h, read-out: DIZ
Bacillus pumilus [20] = experiment: Antibacterial activity against Bacillus pumilus MTCC 1456 assessed as growth inhibition at 250 ug/mL after 48 hr by agar diffusion method; type: functional; settings: MTCC 1456, 48 h, read-out: DIZ
Pseudomonas aeruginosa [21] = experiment: Antibacterial activity against Pseudomonas aeruginosa MTCC 424 assessed as growth inhibition at 100 ug/mL after 48 hr by agar diffusion method; type: functional; settings: MTCC 424, 48 h, read-out: DIZ
Bacillus subtilis [22] = experiment: Antibacterial activity against Bacillus subtilis MTCC 441 assessed as growth inhibition at 250 ug/mL after 48 hr by agar diffusion method; type: functional; settings: MTCC 441, 48 h, read-out: DIZ
Pseudomonas fluorescens [23] = experiment: Antibacterial activity against Pseudomonas fluorescens MTCC 2421 assessed as growth inhibition at 500 ug/mL after 48 hr by agar diffusion method; type: functional; settings: MTCC 2421, 48 h, read-out: DIZ
Penicillium chrysogenum [24] = experiment: Antifungal activity against Penicillium chrysogenum MTCC 161 assessed as growth inhibition at 500 ug/mL after 48 hr by agar diffusion method; type: functional; settings: MTCC 161, 48 h, read-out: DIZ
Aspergillus niger [25] = experiment: Antifungal activity against Aspergillus niger MTCC 2546 assessed as growth inhibition after 24 hr by tube dilution method; type: functional; settings: MTCC 2546, 24 h
Escherichia coli [26] = experiment: Antibacterial activity against Escherichia coli MTCC 1573 assessed as growth inhibition at 750 ug/mL after 48 hr by agar diffusion method; type: functional; settings: MTCC 1573, 48 h, read-out: DIZ
Aspergillus niger [27] = experiment: Antifungal activity against Aspergillus niger MTCC 2546 assessed as growth inhibition at 750 ug/mL after 48 hr by agar diffusion method; type: functional; settings: MTCC 2546, 48 h, read-out: DIZ
Bacillus pumilus [28] = experiment: Antibacterial activity against Bacillus pumilus MTCC 1456 assessed as growth inhibition at 1000 ug/mL after 48 hr by agar diffusion method; type: functional; settings: MTCC 1456, 48 h, read-out: DIZ
Pseudomonas fluorescens [29] = experiment: Antibacterial activity against Pseudomonas fluorescens MTCC 2421 assessed as growth inhibition after 24 hr by tube dilution method; type: functional; settings: MTCC 2421, 24 h
Pseudomonas aeruginosa [30] = experiment: Antibacterial activity against Pseudomonas aeruginosa MTCC 424 assessed as growth inhibition at 1250 ug/mL after 48 hr by agar diffusion method; type: functional; settings: MTCC 424, 48 h, read-out: DIZ
Pseudomonas aeruginosa [31] = experiment: Antibacterial activity against Pseudomonas aeruginosa MTCC 424 assessed as growth inhibition at 250 ug/mL after 48 hr by agar diffusion method; type: functional; settings: MTCC 424, 48 h, read-out: DIZ
Pseudomonas aeruginosa [32] = experiment: Antibacterial activity against Pseudomonas aeruginosa MTCC 424 assessed as growth inhibition at 500 ug/mL after 48 hr by agar diffusion method; type: functional; settings: MTCC 424, 48 h, read-out: DIZ
Staphylococcus aureus [33] = experiment: Antibacterial activity against Staphylococcus aureus MTCC 1430 assessed as growth inhibition after 24 hr by tube dilution method; type: functional; settings: MTCC 1430, 24 h
Escherichia coli [34] = experiment: Antibacterial activity against Escherichia coli MTCC 1573 assessed as growth inhibition at 1000 ug/mL after 48 hr by agar diffusion method; type: functional; settings: MTCC 1573, 48 h, read-out: DIZ
Escherichia coli [35] = experiment: Antibacterial activity against Escherichia coli MTCC 1573 assessed as growth inhibition after 24 hr by tube dilution method; type: functional; settings: MTCC 1573, 24 h
Escherichia coli [36] = experiment: Antibacterial activity against Escherichia coli MTCC 1573 assessed as growth inhibition at 500 ug/mL after 48 hr by agar diffusion method; type: functional; settings: MTCC 1573, 48 h, read-out: DIZ
Staphylococcus aureus [37] = experiment: Antibacterial activity against Staphylococcus aureus MTCC 1430 assessed as growth inhibition at 100 ug/mL after 48 hr by agar diffusion method; type: functional, organism-based
Bacillus subtilis [38] = experiment: Antibacterial activity against Bacillus subtilis MTCC 441 assessed as growth inhibition after 24 hr by tube dilution method; type: functional; settings: MTCC 441, 24 h
Staphylococcus aureus [39] = experiment: Antibacterial activity against Staphylococcus aureus MTCC 1430 assessed as growth inhibition at 500 ug/mL after 48 hr by agar diffusion method; type: functional; settings: MTCC 1430, 48 h, read-out: DIZ

O=C1CSC(c2cccc3ccccc23)N1c1nnc2c3cc(Cl)ccc3nc-2s1 (centres undefined)
growth inhibition (GI) (Staphylococcus aureus [1]): inactive | zone of inhibition at 750 µg/mL (Micrococcus luteus [2]): 12 mm | zone of inhibition at 1250 µg/mL (Staphylococcus aureus [3]): 15 mm | zone of inhibition at 1000 µg/mL (Micrococcus luteus [4]): 15 mm | MIC (Micrococcus luteus [5]): 150 µg/mL (≈ 334 µM) | zone of inhibition at 500 µg/mL (Bacillus subtilis [6]): 11 mm | zone of inhibition at 750 µg/mL (Bacillus subtilis [7]): 15 mm | zone of inhibition at 250 µg/mL (Pseudomonas fluorescens [8]): 11 mm | zone of inhibition at 1000 µg/mL (Bacillus subtilis [9]): 18 mm | zone of inhibition at 250 µg/mL (Penicillium chrysogenum [10]): 8 mm | growth inhibition (GI) (Aspergillus niger [11]): inactive | zone of inhibition at 100 µg/mL (Bacillus pumilus [12]): 8 mm | zone of inhibition at 1000 µg/mL (Staphylococcus aureus [13]): 10 mm | zone of inhibition at 1000 µg/mL (Penicillium chrysogenum [14]): 15 mm | zone of inhibition at 750 µg/mL (Pseudomonas aeruginosa [15]): 13 mm | zone of inhibition at 750 µg/mL (Pseudomonas fluorescens [16]): 15 mm | zone of inhibition at 1250 µg/mL (Aspergillus niger [17]): 18 mm | zone of inhibition at 100 µg/mL (Pseudomonas fluorescens [18]): 8 mm | zone of inhibition at 500 µg/mL (Aspergillus niger [19]): 11 mm | zone of inhibition at 250 µg/mL (Bacillus pumilus [20]): 10 mm | zone of inhibition at 100 µg/mL (Pseudomonas aeruginosa [21]): 8 mm | zone of inhibition at 250 µg/mL (Bacillus subtilis [22]): 7 mm | zone of inhibition at 500 µg/mL (Pseudomonas fluorescens [23]): 12 mm | zone of inhibition at 500 µg/mL (Penicillium chrysogenum [24]): 11 mm | MIC (Aspergillus niger [25]): 150 µg/mL (≈ 334 µM) | zone of inhibition at 750 µg/mL (Escherichia coli [26]): 15 mm | zone of inhibition at 750 µg/mL (Aspergillus niger [27]): 13 mm | zone of inhibition at 1000 µg/mL (Bacillus pumilus [28]): 17 mm | MIC (Pseudomonas fluorescens [29]): 40 µg/mL (≈ 89.1 µM) | zone of inhibition at 1250 µg/mL (Pseudomonas aeruginosa [30]): 18 mm | zone of inhibition at 250 µg/mL (Pseudomonas aeruginosa [31]): 10 mm | zone of inhibition at 500 µg/mL (Pseudomonas aeruginosa [32]): 12 mm | MIC (Staphylococcus aureus [33]): 150 µg/mL (≈ 334 µM) | zone of inhibition at 1000 µg/mL (Escherichia coli [34]): 17 mm | MIC (Escherichia coli [35]): 30 µg/mL (≈ 66.8 µM) | zone of inhibition at 500 µg/mL (Escherichia coli [36]): 13 mm | growth inhibition (GI) (Staphylococcus aureus [37]): inactive | MIC (Bacillus subtilis [38]): 150 µg/mL (≈ 334 µM) | zone of inhibition at 500 µg/mL (Staphylococcus aureus [39]): 6 mm
